# Assay results taken from PubChem BioAssay (NCI).
# Several values for one entry are separate records, joined by “and”; a condition that tells them apart may be missing. Equal entries are not always repeated.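 Cells were grown in 96-well plates and exposed to each compound for 48 hours at five concentrations; endpoints were interpolated linearly between bracketing concentrations, or set to the highest concentration if not reached. Here, GI50 denotes the concentration required for 50% inhibition of growth. At the TGI there is no net growth.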
# Columns and labels:
# Test in all cases: DTP human tumour cell line panel, 48 h
# 786-0 renal = tested on: 786-0 renal
# A498 renal = tested on: A498 renal
# A549 NSCLC = tested on: A549 NSCLC
# ACHN renal = tested on: ACHN renal
# BT-549 breast = tested on: BT-549 breast
# CAKI-1 renal = tested on: CAKI-1 renal
# CCRF-CEM leukemia = tested on: CCRF-CEM leukemia
# COLO 205 colon = tested on: COLO 205 colon
# DU-145 prostate = tested on: DU-145 prostate
# EKVX NSCLC = tested on: EKVX NSCLC
# HCC-2998 colon = tested on: HCC-2998 colon
# HCT-116 colon = tested on: HCT-116 colon
# HCT-15 colon = tested on: HCT-15 colon
# HL-60(TB) leukemia = tested on: HL-60(TB) leukemia
# HOP-62 NSCLC = tested on: HOP-62 NSCLC
# HOP-92 NSCLC = tested on: HOP-92 NSCLC
# HS 578T breast = tested on: HS 578T breast
# HT29 colon = tested on: HT29 colon
# IGROV1 ovarian = tested on: IGROV1 ovarian
# K-562 leukemia = tested on: K-562 leukemia
# KM12 colon = tested on: KM12 colon
# LOX IMVI melanoma = tested on: LOX IMVI melanoma
# M14 melanoma = tested on: M14 melanoma
# MALME-3M melanoma = tested on: MALME-3M melanoma
# MCF7 breast = tested on: MCF7 breast
# MDA-MB-231 breast = tested on: MDA-MB-231 breast
# MDA-MB-435 = tested on: MDA-MB-435
# MOLT-4 leukemia = tested on: MOLT-4 leukemia
# NCI-H226 lung = tested on: NCI-H226 lung
# NCI-H23 lung = tested on: NCI-H23 lung
# NCI-H460 lung = tested on: NCI-H460 lung
# NCI-H522 lung = tested on: NCI-H522 lung
# NCI/ADR-RES ovarian = tested on: NCI/ADR-RES ovarian
# OVCAR-3 ovarian = tested on: OVCAR-3 ovarian
# OVCAR-4 ovarian = tested on: OVCAR-4 ovarian
# OVCAR-5 ovarian = tested on: OVCAR-5 ovarian
# OVCAR-8 ovarian = tested on: OVCAR-8 ovarian
# PC-3 prostate = tested on: PC-3 prostate
# RPMI-8226 leukemia = tested on: RPMI-8226 leukemia
# RXF 393 renal = tested on: RXF 393 renal
# SF-268 CNS = tested on: SF-268 CNS
# SF-295 CNS = tested on: SF-295 CNS
# SF-539 CNS = tested on: SF-539 CNS
# SK-MEL-2 melanoma = tested on: SK-MEL-2 melanoma
# SK-MEL-28 melanoma = tested on: SK-MEL-28 melanoma
# SK-MEL-5 melanoma = tested on: SK-MEL-5 melanoma
# SK-OV-3 ovarian = tested on: SK-OV-3 ovarian
# SN12C renal = tested on: SN12C renal
# SNB-19 CNS = tested on: SNB-19 CNS
# SNB-75 CNS = tested on: SNB-75 CNS
# SR leukemia = tested on: SR leukemia
# SW-620 colon = tested on: SW-620 colon
# T-47D breast = tested on: T-47D breast
# TK-10 renal = tested on: TK-10 renal
# U251 CNS = tested on: U251 CNS
# UACC-257 melanoma = tested on: UACC-257 melanoma
# UACC-62 melanoma = tested on: UACC-62 melanoma
# UO-31 renal = tested on: UO-31 renal
smiles,measurement,setting,value
NC(=O)c1ccc(-c2nc(-c3ccc4c(c3)OCO4)c(-c3ccccn3)[nH]2)cc1,GI50,786-0 renal,> 25 µM and 36.4 µM
same,TGI,786-0 renal,> 100 µM
same,GI50,A498 renal,> 25 µM and 27.2 µM
same,TGI,A498 renal,> 79.3 µM
same,GI50,A549 NSCLC,> 25 µM and 27.7 µM
same,TGI,A549 NSCLC,> 100 µM
same,GI50,ACHN renal,> 25 µM and 34 µM
same,TGI,ACHN renal,> 100 µM
same,GI50,BT-549 breast,> 25 µM and 22.5 µM
same,TGI,BT-549 breast,> 96.7 µM
same,GI50,CAKI-1 renal,> 25 µM and 22.7 µM
same,TGI,CAKI-1 renal,> 100 µM
same,GI50,CCRF-CEM leukemia,> 25 µM and 38.4 µM
same,TGI,CCRF-CEM leukemia,> 100 µM
same,GI50,COLO 205 colon,> 25 µM and 31.4 µM
same,TGI,COLO 205 colon,> 100 µM
same,GI50,DU-145 prostate,> 25 µM and 38.7 µM
same,TGI,DU-145 prostate,> 100 µM
same,GI50,EKVX NSCLC,> 25 µM and 44.9 µM
same,TGI,EKVX NSCLC,> 100 µM
same,GI50,HCC-2998 colon,> 25 µM and 30.9 µM
same,TGI,HCC-2998 colon,> 100 µM
same,GI50,HCT-116 colon,> 25 µM and 30.4 µM
same,TGI,HCT-116 colon,> 100 µM
same,GI50,HCT-15 colon,> 25 µM and 23 µM
same,TGI,HCT-15 colon,> 25 µM and 63.6 µM
same,GI50,HL-60(TB) leukemia,> 25 µM and 29.6 µM
same,TGI,HL-60(TB) leukemia,> 25 µM and 69.1 µM
same,GI50,HOP-62 NSCLC,> 25 µM and 43 µM
same,TGI,HOP-62 NSCLC,> 100 µM
same,GI50,HOP-92 NSCLC,> 25 µM and 11.4 µM
same,TGI,HOP-92 NSCLC,> 84.6 µM
same,GI50,HS 578T breast,> 25 µM and 28.2 µM
same,TGI,HS 578T breast,> 100 µM
same,GI50,HT29 colon,> 25 µM and 28.3 µM
same,TGI,HT29 colon,> 93.8 µM
same,GI50,IGROV1 ovarian,> 25 µM and 34.2 µM
same,TGI,IGROV1 ovarian,> 100 µM
same,GI50,K-562 leukemia,> 25 µM and 37.2 µM
same,TGI,K-562 leukemia,> 100 µM
same,GI50,KM12 colon,> 25 µM and 35.7 µM
same,TGI,KM12 colon,> 100 µM
same,GI50,LOX IMVI melanoma,> 25 µM and 26.9 µM
same,TGI,LOX IMVI melanoma,> 84.4 µM
same,GI50,M14 melanoma,> 25 µM and 38.1 µM
same,TGI,M14 melanoma,> 100 µM
same,GI50,MALME-3M melanoma,> 25 µM and 38.2 µM
same,TGI,MALME-3M melanoma,> 100 µM
same,GI50,MCF7 breast,> 25 µM and 31.9 µM
same,TGI,MCF7 breast,> 83.8 µM
same,GI50,MDA-MB-231 breast,21.3 µM and 14.8 µM
same,TGI,MDA-MB-231 breast,> 25 µM and 59.1 µM
same,GI50,MDA-MB-435,> 25 µM and 38.6 µM
same,TGI,MDA-MB-435,> 100 µM
same,GI50,MOLT-4 leukemia,> 25 µM and 38.8 µM
same,TGI,MOLT-4 leukemia,> 100 µM
same,GI50,NCI-H226 lung,> 25 µM and 22.2 µM
same,TGI,NCI-H226 lung,> 63.1 µM
same,GI50,NCI-H23 lung,> 25 µM and 46.3 µM
same,TGI,NCI-H23 lung,> 100 µM
same,GI50,NCI-H460 lung,> 25 µM and 23.3 µM
same,TGI,NCI-H460 lung,> 84.7 µM
same,GI50,NCI-H522 lung,> 25 µM and 22.3 µM
same,TGI,NCI-H522 lung,> 25 µM and 72.5 µM
same,GI50,NCI/ADR-RES ovarian,> 25 µM and 32.3 µM
same,TGI,NCI/ADR-RES ovarian,> 100 µM
same,GI50,OVCAR-3 ovarian,> 25 µM and 35.3 µM
same,TGI,OVCAR-3 ovarian,> 100 µM
same,GI50,OVCAR-4 ovarian,> 25 µM and 31.1 µM
same,TGI,OVCAR-4 ovarian,> 100 µM
same,GI50,OVCAR-5 ovarian,> 25 µM and 32 µM
same,TGI,OVCAR-5 ovarian,> 100 µM
same,GI50,OVCAR-8 ovarian,> 25 µM and 34.1 µM
same,TGI,OVCAR-8 ovarian,> 100 µM
same,GI50,PC-3 prostate,> 25 µM and 43.2 µM
same,TGI,PC-3 prostate,> 100 µM
same,GI50,RPMI-8226 leukemia,24.3 µM and 20.7 µM
same,TGI,RPMI-8226 leukemia,> 69.6 µM
same,GI50,RXF 393 renal,> 25 µM and 12.6 µM
same,TGI,RXF 393 renal,> 25 µM and 49.4 µM
same,GI50,SF-268 CNS,> 25 µM and 50.7 µM
same,TGI,SF-268 CNS,> 100 µM
same,GI50,SF-295 CNS,> 25 µM and 24.9 µM
same,TGI,SF-295 CNS,> 25 µM and 79.1 µM
same,GI50,SF-539 CNS,> 25 µM and 49 µM
same,TGI,SF-539 CNS,> 100 µM
same,GI50,SK-MEL-2 melanoma,> 25 µM and 35.8 µM
same,TGI,SK-MEL-2 melanoma,> 100 µM
same,GI50,SK-MEL-28 melanoma,> 25 µM and 51.1 µM
same,TGI,SK-MEL-28 melanoma,> 100 µM
same,GI50,SK-MEL-5 melanoma,> 25 µM and 15.1 µM
same,TGI,SK-MEL-5 melanoma,> 25 µM and 29.2 µM
same,GI50,SK-OV-3 ovarian,> 25 µM and 39.5 µM
same,TGI,SK-OV-3 ovarian,> 100 µM
same,GI50,SN12C renal,> 25 µM and 42.2 µM
same,TGI,SN12C renal,> 100 µM
same,GI50,SNB-19 CNS,> 25 µM and 54.6 µM
same,TGI,SNB-19 CNS,> 100 µM
same,GI50,SNB-75 CNS,> 16.5 µM and 21.3 µM
same,TGI,SNB-75 CNS,> 90.8 µM
same,GI50,SR leukemia,> 25 µM and 20.4 µM
same,TGI,SR leukemia,> 100 µM
same,GI50,SW-620 colon,> 25 µM and 65.6 µM
same,TGI,SW-620 colon,> 100 µM
same,GI50,T-47D breast,> 25 µM and 21.8 µM
same,TGI,T-47D breast,> 100 µM
same,GI50,TK-10 renal,> 25 µM and 47.7 µM
same,TGI,TK-10 renal,> 100 µM
same,GI50,U251 CNS,> 25 µM and 44.5 µM
same,TGI,U251 CNS,> 100 µM
same,GI50,UACC-257 melanoma,> 64.3 µM
same,TGI,UACC-257 melanoma,> 100 µM
same,GI50,UACC-62 melanoma,> 25 µM and 35.1 µM
same,TGI,UACC-62 melanoma,> 100 µM
same,GI50,UO-31 renal,> 25 µM and 32.3 µM
same,TGI,UO-31 renal,> 100 µM
